According to PubChem BioAssay (NCI):
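Growth conditions: 96-well plates. Treatment: test compound, 48 hours, 5 concentrations. Analysis: linear interpolation between bracketing concentrations; unreached endpoints set to highest concentration. Here, GI50 denotes the concentration required for 50% inhibition of growth. TGI denotes the concentration required for complete inhibition of growth.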 Where a SMILES comes first, the peptide text is derived from it.

Experiments:
Experiment in all cases: inhibition of tumour cell growth, NCI panel, 48 h
HCT-116 colon = tested on: HCT-116 colon
HCT-15 colon = tested on: HCT-15 colon
HT29 colon = tested on: HT29 colon
K-562 leukemia = tested on: K-562 leukemia
MALME-3M melanoma = tested on: MALME-3M melanoma
NCI-H460 lung = tested on: NCI-H460 lung
RXF 393 renal = tested on: RXF 393 renal
SF-268 CNS = tested on: SF-268 CNS
SW-620 colon = tested on: SW-620 colon
UO-31 renal = tested on: UO-31 renal

SMILES	TGI (HCT-116 colon) [µM]	TGI (HCT-15 colon) [µM]	TGI (HT29 colon) [µM]	TGI (K-562 leukemia) [µM]	TGI (MALME-3M melanoma) [µM]	TGI (NCI-H460 lung) [µM]	TGI (RXF 393 renal) [µM]	TGI (SF-268 CNS) [µM]	TGI (SW-620 colon) [µM]	TGI (UO-31 renal) [µM]	GI50 (HCT-116 colon) [µM]	GI50 (HCT-15 colon) [µM]	GI50 (HT29 colon) [µM]	GI50 (K-562 leukemia) [µM]	GI50 (MALME-3M melanoma) [µM]	GI50 (NCI-H460 lung) [µM]	GI50 (RXF 393 renal) [µM]	GI50 (SF-268 CNS) [µM]	GI50 (SW-620 colon) [µM]	GI50 (UO-31 renal) [µM]
COc1cc2c(cc1OCCCCCCCCN1C(=O)c3cccc4cccc(c34)C1=O)N=C[C@@H]1CCCN1C2=O	> 100	32.7	36.2	23.1	49.2	72	29.7	58.5	> 100	> 100	–	–	–	–	–	–	–	–	–	–
N#Cc1c(N)nc2c(c1-c1ccc(Br)cc1)CSc1ccccc1-2	> 100	> 100	> 100	> 100	> 100	> 100	73.8	> 100	> 100	> 100	–	–	–	–	–	–	–	–	–	–
Cc1cnoc1NS(=O)(=O)c1ccc(Nc2nnc(/C=C/c3c(O)ccc4ccccc34)c(=O)n2N)cc1	55.9	61.5	> 100	82.9	65.5	–	80.2	> 100	> 100	> 100	–	–	–	–	–	–	–	–	–	–
COc1ccc(C2c3cc4c(cc3OC(O)(CO)C2C(=O)O)OCO4)cc1 (configuration not stated) (tested in a mixture with another compound)	33.1	35.6	52.4	40.2	75.9	36.3	34.7	94.3	37.6	> 100	–	–	–	–	–	–	–	–	–	–
COc1cc([C@@H]2c3cc4c(cc3[C@@H](c3c(O)cc(O)c5c3O[C@H](c3ccc(O)c(O)c3)[C@H](OC(=O)c3cc(O)c(O)c(O)c3)C5)[C@H]3COC(=O)[C@H]23)OCO4)cc(OC)c1OC	> 100	> 100	> 75.9	> 100	–	96.9	> 100	> 100	> 100	–	–	–	–	–	–	–	–	–	–	–
O=c1c2ccccc2[nH]c(=S)n1-c1ccc(N=Nc2cccc3cc(O)ccc23)cc1	> 100	> 100	> 100	> 100	> 100	> 100	> 100	> 100	> 100	> 100	–	–	–	–	–	–	–	–	–	–
O=C1CC2(CCC(O)(c3cccs3)C(C(=O)c3cccs3)C2)C(=O)c2ccccc2N1 (configuration not stated)	> 100	> 100	> 100	> 100	> 100	46.6	> 100	> 100	> 100	> 100	–	–	–	–	–	–	–	–	–	–
O=C1c2ccccc2C(C2c3ccccc3C(=O)c3cc(Br)ccc32)c2ccc(Br)cc21 (configuration not stated)	> 100	> 100	> 100	> 100	> 100	–	> 100	> 100	> 100	> 100	–	–	–	–	–	–	–	–	–	–
COC1CC(CC2CCC(C)C(C(C)C(=O)O)O2)OC2(OC(C)(C3CCC(C)(C4OC(C5OC(O)(CO)C(C)CC5C)CC4C)O3)CC2C)C1C (configuration not stated)	15.6	29.1	27.4	2.03	0.798	22	1.15	36.5	17.9	33.8	–	–	–	–	–	–	–	–	–	–
CC(C)(C)[Si](C)(C)OCC1OC(n2cnc3c(N)ncnc32)CC1OS(C)(=O)=O (configuration not stated)	> 100	> 100	> 100	> 100	> 100	> 100	> 100	–	> 100	> 100	–	–	–	–	–	–	–	–	–	–
Nc1ccc(-c2nc3cc(F)ccc3s2)cc1CO	> 100	> 100	> 100	> 100	> 100	> 100	34.9	68.8	> 100	> 100	–	–	–	–	–	–	–	–	–	–
CCOC(=O)C(=O)NCCCN1CCOCC1	> 100	> 100	> 100	> 100	> 100	> 100	> 100	> 100	> 100	> 100	–	–	–	–	–	–	–	–	–	–
CCCSc1ccc2[nH]c(N3C(=O)/C(=C/c4cc(OC)c(OC)c(OC)c4)N=C3c3ccccc3)cc2c1	> 37.5	> 37.5	> 37.5	> 35.3	> 37.5	> 37.5	19.9	> 37.5	> 37.5	> 37.5	–	–	–	–	–	–	–	–	–	–
COC(=S)OC1CC(n2cnc3c(N)ncnc32)OC1CO[Si](C)(C)C(C)(C)C (configuration not stated)	31.3	49.8	30.1	> 100	66.8	48.1	25.9	–	> 100	40.8	–	–	–	–	–	–	–	–	–	–
COC(=O)C[C@H](COCc1ccccc1)NC(=O)C[C@H](COCc1ccccc1)NC(=O)OC(C)(C)C	81.2	> 100	> 100	> 100	> 100	–	63.3	40.5	> 100	> 100	–	–	–	–	–	–	–	–	–	–
O=C(O)C(O)C(O)C(O)C(=O)CO (configuration not stated)	> 100	> 100	> 100	> 100	> 100	> 100	> 100	> 100	> 100	> 100	–	–	–	–	–	–	–	–	–	–
O=C1/C(=C\c2ccc(F)cc2)CCOc2c1ccc1ccccc21	10.7	> 100	> 56.8	> 31.1	37.7	97.9	49.7	74.9	> 100	> 100	–	–	–	–	–	–	–	–	–	–
Cc1ccccc1NC(=O)CC(=O)N1N=C(N2c3ccccc3Sc3ccccc32)CC1c1ccccc1 (configuration not stated)	> 100	> 100	> 100	–	> 100	> 100	–	> 100	> 100	> 100	–	–	–	–	–	–	–	–	–	–

SMILES	TGI (HCT-116 colon) [µM]	TGI (HCT-15 colon) [µM]	TGI (HT29 colon) [µM]	TGI (K-562 leukemia) [µM]	TGI (MALME-3M melanoma) [µM]	TGI (NCI-H460 lung) [µM]	TGI (RXF 393 renal) [µM]	TGI (SF-268 CNS) [µM]	TGI (SW-620 colon) [µM]	TGI (UO-31 renal) [µM]	GI50 (HCT-116 colon) [µM]	GI50 (HCT-15 colon) [µM]	GI50 (HT29 colon) [µM]	GI50 (K-562 leukemia) [µM]	GI50 (MALME-3M melanoma) [µM]	GI50 (NCI-H460 lung) [µM]	GI50 (RXF 393 renal) [µM]	GI50 (SF-268 CNS) [µM]	GI50 (SW-620 colon) [µM]	GI50 (UO-31 renal) [µM]
C/C(N=Nc1nc2ccccc2[nH]1)=C1/C=CC=CN1O	> 100	> 100	> 100	> 100	> 100	> 100	> 100	> 100	> 100	> 100	–	–	–	–	–	–	–	–	–	–
CCC(C)C(NC(=O)C1CCCN1C(=O)C(CC(C)C)NC(=O)C(CC(C)C)NC(=O)C(N)CC(C)C)C(=O)NC(C(=O)NCC(=O)NC(CC(N)=O)C(=O)NC(CC(C)C)C(=O)NC(CC(C)C)C(=O)NC(CC(C)C)C(N)=O)C(C)C (configuration not stated) (H-LLLPIVGNLLL-NH2; configuration not given here)	> 50	> 50	> 50	–	> 50	–	–	> 50	> 50	> 50	–	–	–	–	–	–	–	–	–	–
COC(=O)C1=C(O)CCCC(CCC(C)=O)=C1	36.1	> 100	> 100	> 100	> 100	> 100	> 100	> 100	> 100	> 100	–	–	–	–	–	–	–	–	–	–
CC(=O)c1ccc2c(c1)N(CCCN1CCN(CCO)CC1)c1ccccc1C2	30.5	28.8	22.4	30.1	33	31	32.6	33.2	31.3	38.9	–	–	–	–	–	–	–	–	–	–
C1=CC(=[N+]2N=C(c3ccccc3)CC2c2ccccc2)C=CC1=C1SC(c2ccccc2)(c2ccccc2)c2ccccc21 (configuration not stated)	> 100	> 100	> 100	> 100	> 100	> 100	> 100	> 100	> 100	> 100	–	–	–	–	–	–	–	–	–	–
NC(=S)N1N=C(c2ccccc2O)CC1c1ccccc1 (configuration not stated)	28.1	39	28.9	> 100	42.3	35.6	41.6	80.6	> 100	53.6	–	–	–	–	–	–	–	–	–	–
CCCCCOC(=O)c1cc2cc(CCl)ccc2oc1=O	27.4	35.4	35.4	> 49.4	8.33	34.9	14.6	41.9	56.6	11.1	–	–	–	–	–	–	–	–	–	–
COc1cc2c(cc1C)NC(=O)/C2=C/c1c(Cl)n(-c2ccccc2)c2ccccc12	61.1	67.3	> 100	> 100	37.2	30.4	38.5	> 100	38.7	> 100	–	–	–	–	–	–	–	–	–	–
CCCN1C(=O)CSC1=Nc1ccc2cc3ccc(N=C4SCC(=O)N4CCC)cc3nc2c1	34.8	> 100	> 100	> 100	81.7	> 100	> 100	> 100	> 100	> 100	14.3	> 100	90.6	52.2	17.5	66.3	75.8	35.5	> 100	41.1
COC(OC)C1OC(CO)C(n2cc(F)c(=O)[nH]c2=O)C1O (configuration not stated)	> 100	> 100	> 100	> 100	–	> 100	> 100	> 100	> 100	> 100	–	–	–	–	–	–	–	–	–	–
Cc1cc(=O)[nH]c(/N=C(\N)Nc2ccc(Cl)cc2)n1	> 100	> 100	> 100	> 100	> 100	> 100	> 100	> 100	> 100	> 100	–	–	–	–	–	–	–	–	–	–
CC(C)C1OC(=O)/C=C/C=C/C=C/C=C/C=C/CC(O)C(C)C(O)CC(O)CC(O)CC(O)CC(O)CC(O)CC(O)/C=C/C1C (configuration not stated)	–	> 100	> 100	> 100	> 100	> 100	–	> 100	> 100	> 100	–	–	–	–	–	–	–	–	–	–
O=S(=O)(O)c1cc(N=[N+]([O-])c2cc(S(=O)(=O)O)c3ccccc3c2)cc2ccccc12	> 100	> 100	> 100	> 100	> 100	> 100	> 100	> 100	> 100	50.2	–	–	–	–	–	–	–	–	–	–
O=[N+]([O-])c1ccc2c(c1)nc(Cc1ccc(Cl)cc1)n2C[C@@H]1CCCN2CCCCC12 (some centres not stated)	23.3	37.8	28.8	> 54.1	26.2	31.2	25.3	6.27	> 59	–	–	–	–	–	–	–	–	–	–	–
Cc1nc2ncn3c(c-2c1Cc1ccccc1)NC=C(O)N3	> 100	> 100	> 100	–	> 100	> 100	64	> 100	> 100	> 100	–	–	–	–	–	–	–	–	–	–
CC(=O)Oc1ccc(CO)cc1OC(C)=O	> 100	> 100	> 100	> 100	> 100	> 100	> 100	> 100	> 100	> 100	–	–	–	–	–	–	–	–	–	–
O=c1[nH]c(Nc2ccc(Cl)cc2)nc2nc[nH]c12	> 100	> 100	> 100	–	> 100	> 100	–	> 100	> 100	–	–	–	–	–	–	–	–	–	–	–
CSCCC(NC(=O)OCc1ccccc1)P(=O)(O)c1ccccc1 (configuration not stated)	> 100	> 100	> 100	> 100	–	> 100	–	–	> 100	> 100	–	–	–	–	–	–	–	–	–	–
